# Biological target: T1, DNase activity of AChE (Homo AChE protein) (Homo sapiens, UniProt P22303)
# T1 construct: AChE 1-547AA corresponding to human; AChE1-548AA corresponding to mouse; made in house
# Test: Effect of metal cations and chelators on DNase activity of Homo AChE
# Assay type: biochemical
# Conditions: 2.5 mM CaCl2, 5 mM MgCl2, 0.5 mM EGTA, 0.5 mM EDTA; 6 h
# Method: A. In the presence of 2.5 mM CaCl2, 5 mM MgCl2, 0.5 mM EGTA, 0.5 mM EDTA or the combination thereof, plasmid DNA (pEGFP-C1 plasmid) was incubated with Homo AChE protein for 6 h.
# Purified plasmid DNA was used as substrate for detection. In the experiment of cleaving of plasmid DNA, 0.15 μg of plasmid DNA with a transfection-grade purity (pEGFP-C1 plasmid, Clotech) was added to 10 μl buffer system containing (5.0 mM Tris-HCl, PH 7.5; 2.5 mM CaCl2; 5.0 mM MgCl2). 1 μg (or an amount indicated in Examples) of purified AChE proteins of human or mouse origin (AChE 1-547AA corresponding to human; AChE1-548AA corresponding to mouse) was further added, and incubated in 37° C. Sampling at 6 h (or timepoints indicated in Examples).
# T1 sequence (P22303 32-578): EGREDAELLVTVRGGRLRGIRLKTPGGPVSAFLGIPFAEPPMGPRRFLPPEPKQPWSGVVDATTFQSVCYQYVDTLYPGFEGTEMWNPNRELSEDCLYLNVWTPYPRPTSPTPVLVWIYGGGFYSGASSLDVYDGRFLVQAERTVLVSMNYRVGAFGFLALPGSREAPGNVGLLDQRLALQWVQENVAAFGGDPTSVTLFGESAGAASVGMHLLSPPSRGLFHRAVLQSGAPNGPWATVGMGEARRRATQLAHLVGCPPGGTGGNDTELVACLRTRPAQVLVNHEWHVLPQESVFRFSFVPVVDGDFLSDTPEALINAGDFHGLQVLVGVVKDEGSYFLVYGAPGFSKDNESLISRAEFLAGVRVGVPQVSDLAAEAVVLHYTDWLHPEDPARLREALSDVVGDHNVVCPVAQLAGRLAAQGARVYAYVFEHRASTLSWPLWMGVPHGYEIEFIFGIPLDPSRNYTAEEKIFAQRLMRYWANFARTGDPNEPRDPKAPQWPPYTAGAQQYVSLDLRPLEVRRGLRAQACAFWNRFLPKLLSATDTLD
row,Structure (SMILES),effect on activity of AChE cleaving DNA
1,O=C(O)CN(CCOCCOCCN(CC(=O)O)CC(=O)O)CC(=O)O [EGTA],not obvious
2,O=C(O)CN(CCN(CC(=O)O)CC(=O)O)CC(=O)O [EDTA],significantly inhibited

# Source: US20140248254A1, “THE USE OF ACHE AS NUCLEASE” (priority 2011, published 2014)
